{"source": "patent US7432050B2", "about": "“Methods and compositions for detecting colon cancers” (Case Western Reserve University, priority 2001, dated 2008)", "tested_on": "HLTF expression", "test": "RT-PCR assay for HLTF expression reactivation after 5-azacytidine treatment", "assay_type": "cell-based, human", "protocol": "The cultures were grown and treated as described previously (Veigl, et al., 1998, Proc. Natl. Acad. Sci. USA, 95:8698-8702). The optimal tolerated doses were determined for each treated line, and two doses were used for some lines, ranging from 1 μg/ml to 3 μg/ml.\nTo establish that methylation was responsible for silencing HLTF gene expression, cell lines with HLTF DNA methylation were treated with 5-azacytidine (5-azaC), a demethylating agent.", "note": "“Also recorded” adds a separate entry of the source."}
{"smiles": "Nc1ncn([C@@H]2O[C@H](CO)[C@@H](O)[C@H]2O)c(=O)n1", "note": "[5-azaC, 5-azacytidine]", "values": [{"measurement": "reactivation of HLTF expression", "setting": "colon cancer cell lines with HLTF DNA methylation (RCA, V457, SW480, V5, V6, V432), 1 μg/ml to 3 μg/ml", "value": "reactivates HLTF expression; also recorded: reactivated HLTF expression in all these cell lines"}, {"measurement": "change of HLTF expression in control cell lines", "setting": "control cell lines with constitutive HLTF expression and unmethylated HLTF DNA (V429, V503)", "value": "did not further increase HLTF expression"}]}
